Laboratory results reported in patent US20240383875A1, “Benzimidazole Pyridine Derivatives” (Hoffmann-La Roche Inc., priority 2022, published 2024).

Experiments:
Assay type in all cases: biochemical
SIK2 = SIK2 (Homo sapiens, UniProt Q9H0K1); experiment: Enzymatic activity assay SIK2, RapidFire mass spectrometry (phosphorylation of CHK-peptide); conditions: RapidFire MS, inhibition of SIK2; read-out: SIK2 RF IC50
In short: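 Read-out is the summed phospho-species fraction of CHK-peptide by RapidFire mass spectrometry, normalized between DMSO and 1 μM YKL-05-099. The reaction used 0.5 nM SIK2, 100 μM ATP and 10 μM peptide solutions in HEPES pH 7.0/10 mM magnesium acetate for 45 min at ambient temperature.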

SIK3 = SIK3 (Homo sapiens, UniProt Q9Y2K2); experiment: Enzymatic activity assay SIK3, RapidFire mass spectrometry (phosphorylation of CHK-peptide); conditions: RapidFire MS, inhibition of SIK3; read-out: SIK3 RF IC50
In short: (§1)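 Human SIK1/2/3, 5/0.5/1.5 nM; 12.5 mM HEPES pH 7.0, 10 mM Mg acetate, 0.005% BSA. 30 min cpd pre-inc, + CHK-peptide (10 μM soln) + ATP (100 μM soln), 45 min RT. Formic acid stop; RF-MS phospho ratio; IC50.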

SIK1 = SIK1 (Homo sapiens, UniProt P57059); experiment: Enzymatic activity assay SIK1, RapidFire mass spectrometry (phosphorylation of CHK-peptide); conditions: RapidFire MS, inhibition of SIK1; read-out: SIK1 RF IC50
In short: as §1

SIK2, sequence (Q9H0K1 whole entry): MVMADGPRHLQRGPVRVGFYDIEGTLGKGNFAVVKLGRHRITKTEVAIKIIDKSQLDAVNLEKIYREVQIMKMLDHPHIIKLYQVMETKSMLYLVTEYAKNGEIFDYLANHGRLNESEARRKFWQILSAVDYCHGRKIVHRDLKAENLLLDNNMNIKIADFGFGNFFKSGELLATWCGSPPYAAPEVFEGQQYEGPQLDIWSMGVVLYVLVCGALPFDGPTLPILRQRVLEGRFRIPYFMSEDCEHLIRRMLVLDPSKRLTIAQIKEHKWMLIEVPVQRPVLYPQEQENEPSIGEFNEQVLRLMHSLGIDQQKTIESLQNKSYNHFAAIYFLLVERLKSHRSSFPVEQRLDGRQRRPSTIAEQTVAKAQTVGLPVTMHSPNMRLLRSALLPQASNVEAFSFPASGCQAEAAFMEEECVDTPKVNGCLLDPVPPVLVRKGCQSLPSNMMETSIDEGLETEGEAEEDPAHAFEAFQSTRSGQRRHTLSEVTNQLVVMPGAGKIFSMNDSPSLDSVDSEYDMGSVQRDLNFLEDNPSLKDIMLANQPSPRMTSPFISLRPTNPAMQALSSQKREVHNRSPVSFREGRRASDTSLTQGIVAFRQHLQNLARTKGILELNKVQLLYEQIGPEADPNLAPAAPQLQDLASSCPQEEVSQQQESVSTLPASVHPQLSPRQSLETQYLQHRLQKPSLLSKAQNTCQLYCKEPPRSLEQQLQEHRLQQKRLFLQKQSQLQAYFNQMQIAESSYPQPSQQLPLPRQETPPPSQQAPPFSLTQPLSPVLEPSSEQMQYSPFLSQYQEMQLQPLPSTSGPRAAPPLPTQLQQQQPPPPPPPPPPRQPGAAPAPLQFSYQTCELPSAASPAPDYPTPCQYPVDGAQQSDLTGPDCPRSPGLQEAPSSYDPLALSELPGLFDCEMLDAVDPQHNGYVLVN
SIK1, sequence (P57059 whole entry): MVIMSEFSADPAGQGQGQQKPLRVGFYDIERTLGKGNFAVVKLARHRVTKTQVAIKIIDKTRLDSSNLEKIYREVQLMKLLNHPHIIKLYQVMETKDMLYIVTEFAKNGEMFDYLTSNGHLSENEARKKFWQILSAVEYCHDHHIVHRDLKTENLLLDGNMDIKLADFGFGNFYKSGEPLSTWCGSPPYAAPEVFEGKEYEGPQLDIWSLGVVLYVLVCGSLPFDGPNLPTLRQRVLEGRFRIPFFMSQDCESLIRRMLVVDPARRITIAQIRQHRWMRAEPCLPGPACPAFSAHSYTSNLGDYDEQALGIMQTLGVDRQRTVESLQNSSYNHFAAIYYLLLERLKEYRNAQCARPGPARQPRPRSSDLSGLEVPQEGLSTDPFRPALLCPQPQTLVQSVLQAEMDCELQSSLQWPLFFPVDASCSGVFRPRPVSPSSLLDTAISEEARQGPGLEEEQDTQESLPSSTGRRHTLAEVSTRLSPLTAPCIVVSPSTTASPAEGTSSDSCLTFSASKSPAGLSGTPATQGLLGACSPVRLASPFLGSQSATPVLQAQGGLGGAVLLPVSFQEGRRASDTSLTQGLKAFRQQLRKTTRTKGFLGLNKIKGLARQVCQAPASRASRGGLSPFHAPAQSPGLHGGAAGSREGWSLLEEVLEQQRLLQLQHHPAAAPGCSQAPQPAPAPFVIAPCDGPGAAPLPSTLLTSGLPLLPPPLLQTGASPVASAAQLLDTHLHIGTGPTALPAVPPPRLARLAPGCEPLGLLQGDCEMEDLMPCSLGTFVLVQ
SIK3, sequence (Q9Y2K2 whole entry): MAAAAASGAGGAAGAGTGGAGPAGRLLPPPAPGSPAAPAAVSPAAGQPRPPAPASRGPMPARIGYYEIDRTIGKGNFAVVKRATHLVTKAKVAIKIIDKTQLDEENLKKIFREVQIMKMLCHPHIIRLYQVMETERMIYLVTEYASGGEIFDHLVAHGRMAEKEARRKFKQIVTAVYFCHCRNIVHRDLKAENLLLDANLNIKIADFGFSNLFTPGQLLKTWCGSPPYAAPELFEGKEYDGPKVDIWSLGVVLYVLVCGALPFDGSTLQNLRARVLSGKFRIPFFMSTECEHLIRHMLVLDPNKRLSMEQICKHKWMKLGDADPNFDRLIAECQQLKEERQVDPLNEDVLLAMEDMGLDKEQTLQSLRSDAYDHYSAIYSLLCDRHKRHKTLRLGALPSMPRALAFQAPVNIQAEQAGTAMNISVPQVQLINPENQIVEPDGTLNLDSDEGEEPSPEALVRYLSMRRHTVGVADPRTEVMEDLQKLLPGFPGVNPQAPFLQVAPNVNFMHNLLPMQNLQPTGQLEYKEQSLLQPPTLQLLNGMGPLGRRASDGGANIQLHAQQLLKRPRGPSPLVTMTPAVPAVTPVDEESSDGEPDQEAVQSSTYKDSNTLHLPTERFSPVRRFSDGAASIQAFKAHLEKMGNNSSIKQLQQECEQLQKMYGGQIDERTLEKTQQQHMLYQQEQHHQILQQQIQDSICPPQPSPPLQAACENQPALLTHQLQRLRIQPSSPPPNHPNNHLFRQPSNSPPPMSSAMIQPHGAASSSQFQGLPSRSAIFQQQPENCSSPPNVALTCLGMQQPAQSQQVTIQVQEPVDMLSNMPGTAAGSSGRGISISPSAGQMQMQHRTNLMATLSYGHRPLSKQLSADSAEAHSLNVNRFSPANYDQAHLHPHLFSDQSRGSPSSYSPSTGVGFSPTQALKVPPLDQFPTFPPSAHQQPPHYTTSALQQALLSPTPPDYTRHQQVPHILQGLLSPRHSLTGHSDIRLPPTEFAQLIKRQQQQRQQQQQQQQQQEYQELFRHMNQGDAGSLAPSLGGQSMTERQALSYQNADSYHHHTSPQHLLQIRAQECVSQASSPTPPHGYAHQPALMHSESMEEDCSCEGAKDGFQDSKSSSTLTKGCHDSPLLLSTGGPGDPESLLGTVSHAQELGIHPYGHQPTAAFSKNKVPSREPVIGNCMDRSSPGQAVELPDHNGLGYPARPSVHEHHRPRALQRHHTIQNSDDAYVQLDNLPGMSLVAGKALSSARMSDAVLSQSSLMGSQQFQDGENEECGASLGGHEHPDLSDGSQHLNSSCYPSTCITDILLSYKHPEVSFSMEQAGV

Row | Structure (SMILES) | IC50 (SIK2) [nM] | IC50 (SIK3) [nM] | IC50 (SIK1) [nM]
1 | Cc1cc(C#N)nn1-c1nc(-n2cnc3cc(-c4ccn(C)c(=O)n4)ccc32)ccc1C(C)O (stereo not drawn) [Example 338, 1-[3-(1-hydroxyethyl)-6-[5-(1-methyl-2-oxo-pyrimidin-4-yl)benzimidazol-1-yl]-2-pyridyl]-5-methyl-pyrazole-3-carbonitrile] | 27.2 | 27.6 | 87
2 | Cc1ccc(-c2ccc3ncn(-c4ccc(C(C)O)c(-n5nc(C#N)cc5C)n4)c3c2)nn1 (stereo not drawn) [Example 339, 1-[3-(1-hydroxyethyl)-6-[6-(6-methylpyridazin-3-yl)benzimidazol-1-yl]-2-pyridyl]-5-methyl-pyrazole-3-carbonitrile] | 29.7 | 301 | 32
3 | Cc1ccc(-c2ccc3c(c2)ncn3-c2ccc(C(C)O)c(-n3nc(C#N)cc3C)n2)nn1 (stereo not drawn) [Example 340, 1-[3-(1-hydroxyethyl)-6-[5-(6-methylpyridazin-3-yl)benzimidazol-1-yl]-2-pyridyl]-5-methyl-pyrazole-3-carbonitrile] | 20.3 | 17.9 | 42
4 | Cc1cc(C#N)nn1-c1nc(-n2cnc3ccc(N4CCC[C@H]4C#N)cc32)ccc1C(C)O (stereo partly drawn) [Example 341, 1-[6-[6-[(2S)-2-cyanopyrrolidin-1-yl]benzimidazol-1-yl]-3-(1-hydroxyethyl)-2-pyridyl]-5-methyl-pyrazole-3-carbonitrile] | 15.1 | 124 | 14
5 | Cc1cc(C#N)nn1-c1nc(-n2cnc3cc(N4CCC[C@H]4C#N)ccc32)ccc1C(C)O (stereo partly drawn) [Example 342, 1-[6-[5-[(2S)-2-cyanopyrrolidin-1-yl]benzimidazol-1-yl]-3-(1-hydroxyethyl)-2-pyridyl]-5-methyl-pyrazole-3-carbonitrile] | 9.5 | 16.1 | 22
6 | Cc1cc(C#N)nn1-c1nc(-n2cnc3ccc(N4CC[C@H]5CNC(=O)[C@H]54)cc32)ccc1C(C)O (stereo partly drawn) [Example 343, 1-[6-[6-[(3aS,6aS)-6-oxo-2,3,3a,4,5,6a-hexahydropyrrolo[2,3-c]pyrrol-1-yl]benzimidazol-1-yl]-3-(1-hydroxyethyl)-2-pyridyl]-5-methyl-pyrazole-3-carbonitrile] | 22 | 63 | 5
7 | Cc1ccc(Nc2ccc3c(c2)ncn3-c2ccc(C(C)O)c(-n3nc(C(F)F)nc3C)n2)nn1 (stereo not drawn) [Example 344, 1-[2-[3-(difluoromethyl)-5-methyl-1,2,4-triazol-1-yl]-6-[5-[(6-methylpyridazin-3-yl)amino]benzimidazol-1-yl]-3-pyridyl]ethanol] | 20.2 | 3.2 | 1570
8 | Cc1cc(C(=O)N(C)C)c(Nc2cc3ncn(-c4ccc([C@H](C)O)c(-n5nc(C(F)F)cc5C)n4)c3cc2F)nn1 [Example 345, 3-[[1-[6-[3-(difluoromethyl)-5-methyl-pyrazol-1-yl]-5-[(1~{S})-1-hydroxyethyl]-2-pyridyl]-6-fluoro-benzimidazol-5-yl]amino]-~{N},~{N},6-trimethyl-pyridazine-4-carboxamide] | 48.9 | 60.2 | 17200
9 | Cc1ccc(Nc2cc3ncn(-c4ccc(C(C)O)c(-c5cc(OC(F)F)ncc5C)n4)c3cc2F)nn1 (stereo not drawn) [Example 346, 1-[2-[2-(difluoromethoxy)-5-methyl-4-pyridyl]-6-[6-fluoro-5-[(6-methylpyridazin-3-yl)amino]benzimidazol-1-yl]-3-pyridyl]ethanol] | 1 | 1.4 | 133
10 | Cc1ccc(Nc2cc3ncn(-c4ccc(CO)c(-n5nc(C#N)cc5C)n4)c3cc2F)nn1 [Example 347, 1-[6-[6-fluoro-5-[(6-methylpyridazin-3-yl)amino]benzimidazol-1-yl]-3-(hydroxymethyl)-2-pyridyl]-5-methyl-pyrazole-3-carbonitrile] | 6.3 | 3.9 | 1120
11 | Cc1cc(C(=O)N(C)C)c(Nc2ccc3c(c2)ncn3-c2ccc(CO)c(-n3nc(C(F)F)cc3C(F)F)n2)nn1 [Example 348, 3-[[1-[6-[3,5-bis(difluoromethyl)pyrazol-1-yl]-5-(hydroxymethyl)-2-pyridyl]benzimidazol-5-yl]amino]-N,N,6-trimethyl-pyridazine-4-carboxamide] | 32.2 | 37.1 | 14500
12 | Cc1ccc(Nc2ccc3c(c2)ncn3-c2ccc(C(C)O)c(-c3nn(CC(F)(F)F)cc3C)n2)nn1 (stereo not drawn) [Example 349, 1-[6-[5-[(6-methylpyridazin-3-yl)amino]benzimidazol-1-yl]-2-[4-methyl-1-(2,2,2-trifluoroethyl)pyrazol-3-yl]-3-pyridyl]ethanol] | 5.3 | 6.6 | 432
13 | Cc1nn(CC(F)(F)F)cc1-c1nc(-n2cnc3cc(Oc4ccc(CN5CCOCC5)nn4)ccc32)ccc1C(C)O (stereo not drawn) [Example 350, 1-[2-[3-methyl-1-(2,2,2-trifluoroethyl)pyrazol-4-yl]-6-[5-[6-(morpholinomethyl)pyridazin-3-yl]oxybenzimidazol-1-yl]-3-pyridyl]ethanol] | 67 | 60.6 | 3800
14 | Cc1ccc(Oc2ccc3c(c2)ncn3-c2ccc(C(C)O)c(-c3cn(CC(F)(F)F)nc3C)n2)nn1 (stereo not drawn) [Example 351, 1-[6-[5-(6-methylpyridazin-3-yl)oxybenzimidazol-1-yl]-2-[3-methyl-1-(2,2,2-trifluoroethyl)pyrazol-4-yl]-3-pyridyl]ethanol] | 35.4 | 9.3 | 3390
15 | Cc1nn(CC(F)(F)F)cc1-c1nc(-n2cnc3cc(Oc4ccc(CN5CCN(C)CC5)nn4)ccc32)ccc1C(C)O (stereo not drawn) [Example 352, 1-[6-[5-[6-[(4-methylpiperazin-1-yl)methyl]pyridazin-3-yl]oxybenzimidazol-1-yl]-2-[3-methyl-1-(2,2,2-trifluoroethyl)pyrazol-4-yl]-3-pyridyl]ethanol] | 16.5 | 24.1 | 2340

Next, values leading:

Row | IC50 (SIK2) [nM] | IC50 (SIK3) [nM] | IC50 (SIK1) [nM] | Structure (SMILES)
16 | 60.6 | 218 | 230 | Cc1ccc(Nc2cc3c(cc2OC2COC2)ncn3-c2ccc(C(C)O)c(-n3nc(OC(F)F)cc3C)n2)nn1 (stereo not drawn) [Example 353, 1-[2-[3-(difluoromethoxy)-5-methyl-pyrazol-1-yl]-6-[6-[(6-methylpyridazin-3-yl)amino]-5-(oxetan-3-yloxy)benzimidazol-1-yl]-3-pyridyl]ethanol]
17 | 78.6 | 75.9 | 225 | Cc1ccc(Nc2cc3c(cc2F)ncn3-c2ccc(C(C)O)c(-n3nc(Cl)cc3C)n2)nn1 (stereo not drawn) [Example 354, 1-[2-(3-chloro-5-methyl-pyrazol-1-yl)-6-[5-fluoro-6-[(6-methylpyridazin-3-yl)amino]benzimidazol-1-yl]-3-pyridyl]ethanol]
18 | 5.3 | 3.6 | 1050 | Cc1ccc(Nc2cc3ncn(-c4ccc(C(C)O)c(-n5nc(Cl)cc5C)n4)c3cc2F)nn1 (stereo not drawn) [Example 355, 1-[2-(3-chloro-5-methyl-pyrazol-1-yl)-6-[6-fluoro-5-[(6-methylpyridazin-3-yl)amino]benzimidazol-1-yl]-3-pyridyl]ethanol]
19 | 0.9 | 1.7 | 245 | Cc1ccc(Nc2cc3ncn(-c4ccc(C(C)O)c(-c5cn(CC6CC6)nc5C)n4)c3cc2F)nn1 (stereo not drawn) [Example 356, 1-[2-[1-(cyclopropylmethyl)-3-methyl-pyrazol-4-yl]-6-[6-fluoro-5-[(6-methylpyridazin-3-yl)amino]benzimidazol-1-yl]-3-pyridyl]ethanol]
20 | 1 | 1.7 | 19 | Cc1ccc(Nc2cc3ncn(-c4ccc(C(C)O)c(-n5nc(OC(F)F)cc5C)n4)c3cc2OC2COC2)nn1 (stereo not drawn) [Example 357, 1-[2-[3-(difluoromethoxy)-5-methyl-pyrazol-1-yl]-6-[5-[(6-methylpyridazin-3-yl)amino]-6-(oxetan-3-yloxy)benzimidazol-1-yl]-3-pyridyl]ethanol]
21 | 2.5 | 8.4 | 51 | Cc1nn(CC(F)(F)F)cc1-c1nc(-n2cnc3cc(NC(=O)CN4CCCCC4)ccc32)ccc1C(C)O (stereo not drawn) [Example 358, N-[1-[5-(1-hydroxyethyl)-6-[3-methyl-1-(2,2,2-trifluoroethyl)pyrazol-4-yl]-2-pyridyl]benzimidazol-5-yl]-2-(1-piperidyl)acetamide]
22 | 25.3 | 4.6 | 1170 | Cc1ccc(Nc2ccc3c(c2)ncn3-c2ccc(C(C)O)c(N3CC(C#N)C4(CCC4)C3)n2)nn1 (stereo not drawn) [Example 359, 6-[3-(1-hydroxyethyl)-6-[5-[(6-methylpyridazin-3-yl)amino]benzimidazol-1-yl]-2-pyridyl]-6-azaspiro[3.4]octane-8-carbonitrile]
23 | 42.3 | 7.9 | 2320 | Cc1ccc(Nc2ccc3c(c2)ncn3-c2ccc(C(C)O)c(N3CCOC(C#N)C3)n2)nn1 (stereo not drawn) [Example 360, 4-[3-(1-hydroxyethyl)-6-[5-[(6-methylpyridazin-3-yl)amino]benzimidazol-1-yl]-2-pyridyl]morpholine-2-carbonitrile]
24 | 8.7 | 26.7 | 12 | Cc1ccc(Nc2cc3c(cc2F)ncn3-c2ccc(C(C)O)c(-n3nc(C(F)F)cc3C)n2)c(F)c1F (stereo not drawn) [Example 362, 1-[6-[6-(2,3-difluoro-4-methyl-anilino)-5-fluoro-benzimidazol-1-yl]-2-[3-(difluoromethyl)-5-methyl-pyrazol-1-yl]-3-pyridyl]ethanol]
